This is an account of results in patent publication US20050245527A1, “Nitrogen containing heterocyclic compounds and medicines containing the same” (priority 2002, published 2005).

Structures can show the parent of a compound that is named as a salt.

One test relates to left saphenous nerve of rats (ectopic firing). Nature of the test: Inhibition of ectopic firing. The conditions noted are these: Rattus norvegicus, iv; rats with cut left saphenous nerve, urethane anesthesia, compound via catheter in right cervical vein, number of firings in 10 seconds; read-out: Inhibition of ectopic firing (ID50). It is filed as in vivo. The procedure:
<Inhibition of Ectopic Firing>
(1) The inhibitory effect on ectopic firing was evaluated by the following method, with reference to Burchiel, K J., Exp. Neurol., 102, 249-253 (1988).
(2) The left saphenous nerve of rats, in which ectopic firing was observed, was cut near the knee joint, and approximately 3 mm was cut off to avoid reattachment of the cut nerve. After more than a week, the left saphenous nerve was exposed under urethane (1 g/kg body weight) anesthesia, and the proximal part up to approximately 1 cm from the cut site was detached from the surrounding tissue. A catheter was inserted in the right cervical vein beforehand for administration of the compound.
(3) The detached nerve was placed on a platinum hook electrode and wetted with liquid paraffin to avoid drying of the nerve. The electrode was connected to a microelectrode amplifier, and the change in potential was recorded from an oscilloscope through an A/D converter onto a computer. The recorded nerve firing was evaluated based on the number of firings in 10 seconds, using analyzing software (AcqKnowledge).
`Cc1ccccc1OCC1(C#N)CCN(Cc2ccc[nH]c2=O)CC1` [Example 122, 1-(2-Oxo-1,2-dihydro-3-pyridylmethyl)-4-(2-methylphenoxymethyl)piperidine-4-carbonitrile]: the ED50 is less than 0.5 mg/kg.
As to `O=c1[nH]cccc1CN1CCC(CCc2ccccc2F)(COc2ccccc2F)CC1` [Example 127, 3-[4-(2-Fluorophenoxymethyl)-4-[2-(2-fluorophenyl)ethyl]piperidino]methyl-1H-pyridin-2-one], the ED50 lay in the range of 0.5 to 1 mg/kg.
The same measure, in the same setting: in the case of `Cc1ccccc1OCC1(CCc2ccccc2F)CCN(Cc2ccc[nH]c2=O)CC1` [Example 128, 3-[4-[2-(2-Fluorophenyl)ethyl]-4-(2-methylphenoxymethyl)piperidino]methyl-1H-pyridin-2-one] it was 0.5 to 1 mg/kg; in that of `O=c1ccnc(CN2CCC(COc3ccccc3F)CC2)[nH]1` [Example 137, 2-[4-(2-Fluorophenoxymethyl)piperidino]methyl-3H-pyrimidin-4-one], 0.5 to 1 mg/kg; in that of `O=C(CC1CCN(Cc2ncc[nH]c2=O)CC1)c1ccccc1F` [Example 139, 3-[4-[2-(2-Fluorophenyl)-2-oxoethyl]piperidino]methyl-1H-pyrazin-2-one], 0.5 to 1 mg/kg.
The same measure, in the same setting: in the case of `O=c1[nH]ccnc1CN1CCC(OCc2ccccc2F)CC1` [Example 141, 3-[4-(2-Fluorobenzyloxy)piperidino]methyl-1H-pyrazin-2-one] it was less than 0.5 mg/kg.
With `O=c1[nH]ccnc1CN1CCC(COc2ccc(F)cc2F)CC1` [Example 163, 3-[4-(2,4-Difluorophenoxymethyl)piperidino]methyl-1H-pyrazin-2-one], the ED50 is less than 0.5 mg/kg.
For `O=c1[nH]ccnc1CN1CCC(CC(F)c2ccccc2F)CC1` (centres unmarked) [Example 178, 3-[4-[2-Fluoro-2-(2-fluorophenyl)ethyl]piperidino]methyl-1H-pyrazin-2-one], the ED50 is less than 0.5 mg/kg.
In the case of `O=c1nccc(CCN2CCC(COc3ccccc3F)CC2)[nH]1` [Example 181, 4-[2-[4-(2-Fluorophenoxymethyl)piperidino]ethyl]-3H-pyrimidin-2-one], the ED50 is less than 0.5 mg/kg.
Take `O=c1[nH]cncc1CN1CCC(COc2ccccc2F)CC1` [Example 230, 5-[4-(2-Fluorophenoxymethyl)piperidino]methyl-3H-pyrimidin-4-one]: the ED50 was less than 0.5 mg/kg.
The same measure, in the same setting: in the case of `O=c1[nH]ccnc1CCN1CCC(COc2ccccc2F)CC1` [Example 232, 3-[2-[4-(2-Fluorophenoxymethyl)piperidino]ethyl]-1H-pyrazin-2-one] it was less than 0.5 mg/kg.
Still for that read-out and setting: in the case of `O=c1cncc(CCN2CCC(COc3ccccc3F)CC2)[nH]1` [Example 233, 6-[2-[4-(2-Fluorophenoxymethyl)piperidino]ethyl]-1H-pyrazin-2-one] it was less than 0.5 mg/kg.
On the same count and under the same terms, in the case of `O=c1cncc(CCN2CCC(/C=C/c3ccccc3F)CC2)[nH]1` [Example 234, (E)-6-[2-[4-(2-(2-Fluorophenyl)vinyl]piperidino]ethyl]-1H-pyrazin-2-one] it was 0.5 to 1 mg/kg; in that of `O=C(Cc1ccccc1F)C1CCN(CCc2cncc(=O)[nH]2)CC1` [Example 237, 6-[2-[4-[2-(2-Fluorophenyl)acetyl]piperidino]ethyl]-1H-pyrazin-2-one], 0.5 to 1 mg/kg.
Take `O=c1cncc(CCN2CCC(COc3ccc(F)cc3)CC2)[nH]1` [Example 246, 6-[2-[4-(4-Fluorophenoxymethyl)piperidino]ethyl]-1H-pyrazin-2-one]: the ED50 was in the range of 0.5 to 1 mg/kg.
With `Cc1ccccc1OCC1(O)CCN(Cc2ccc[nH]c2=O)CC1` [Example 252, 3-[4-Hydroxy-4-(2-methylphenoxymethyl)piperidino]methyl-1H-pyridin-2-one], the ED50 lay within 0.5 to 1 mg/kg.
`O=c1[nH]cccc1CN1CCC(CCc2ccccc2)(COc2ccccc2F)CC1` [Example 257, 3-[4-(2-Fluorophenoxymethyl)-4-(2-phenylethyl)piperidino]methyl-1H-pyridin-2-one]: the ED50 is less than 0.5 mg/kg.

In another test the test system is sodium channels.
Test: not given
It is filed as cell-based. The conditions noted are these: read-out: IC50 (μM), sodium channel-inhibiting activity; rat fetal cultured hippocampal neurons, SBFI fluorescence in the presence of 4-aminopyridine, 5 minutes after addition, 1 μM tetrodotoxin = 100%.
As for `O=c1[nH]ccnc1CN1CCC(CS(=O)(=O)c2ccccc2F)CC1` [Example 338, 3-[4-[(2-Fluorophenylsulfonyl)methyl]piperidino]methyl-1H-pyrazin-2-one], the IC50 (as a rule, the concentration that gives 50% inhibition) came out at 9.8 µM.
With `O=c1[nH]ccnc1CN1CCOC(CCc2ccccc2F)C1` (centres unmarked) [Example 340, 3-[3-[2-(2-Fluorophenyl)ethyl]morpholin-1-yl]methyl-1H-pyrazin-2-one], the IC50 was found to be 7.1 µM.
As for `O=c1[nH]ccnc1CN1CCOC(/C=C/c2ccccc2F)C1` (centres unmarked) [Example 341, (E)-3-[3-[2-(2-Fluorophenyl)vinyl]morpholin-1-yl]methyl-1H-pyrazin-2-one], the IC50 stood at 7.1 µM.
Consider `O=c1[nH]ccnc1CN1CCOC(COc2ccccc2F)C1` (centres unmarked) [Example 342, 3-[3-(2-Fluorophenoxymethyl)morpholin-1-yl]methyl-1H-pyrazin-2-one], for which the concentration for half-maximal inhibition (IC50) was 3 µM.
On the same count and under the same terms, to `O=C(Cc1ccccc1OC(F)(F)F)C1CCN(Cc2ncc[nH]c2=O)CC1` [Example 345, 3-[4-[2-[2-(Trifluoromethoxy)phenyl]acetyl]piperidino]methyl-1H-pyrazin-2-one] belongs 2.1 µM; to `CCCOc1ccccc1CC(=O)C1CCN(Cc2ncc[nH]c2=O)CC1` [Example 348, 3-[4-[2-(2-n-Propoxyphenyl)acetyl]piperidino]methyl-1H-pyrazin-2-one], 2.6 µM.
Turning to `CC(C(=O)C1CCN(Cc2ncc[nH]c2=O)CC1)c1ccccc1F` (centres unmarked) [Example 349, 3-[4-[2-(2-Fluorophenyl)propionyl]piperidino]methyl-1H-pyrazin-2-one], the half-inhibitory concentration (IC50) is 8.9 µM.
Same read-out and setting: in the case of `O=C(Cc1cccc2ccccc12)C1CCN(Cc2ncc[nH]c2=O)CC1` [Example 353, 3-[4-[2-(1-Naphthyl)acetyl]piperidino]methyl-1H-pyrazin-2-one] it was 1.7 µM; in that of `CC1(COc2ccccc2Cl)CCN(Cc2ncc[nH]c2=O)CC1` [Example 354, 3-[4-(2-Chlorophenoxymethyl)-4-methylpiperidino]methyl-1H-pyrazin-2-one], 2.8 µM.
The same measure, in the same setting: to `Cc1ccccc1OCC1(C)CCN(Cc2ncc[nH]c2=O)CC1` [Example 355, 3-[4-Methyl-4-(2-methylphenoxymethyl)piperidino]methyl-1H-pyrazin-2-one] belongs 2.5 µM; to `COc1ccccc1OCC1(C)CCN(Cc2ncc[nH]c2=O)CC1` [Example 356, 3-[4-(2-Methoxyphenoxymethyl)-4-methylpiperidino]methyl-1H-pyrazin-2-one], 2.9 µM.
Same read-out and setting: in the case of `O=C(Cc1ccccc1-c1ccccc1)C1CCN(Cc2ncc[nH]c2=O)CC1` [Example 359, 3-[4-[2-(2-Biphenyl)acetyl]piperidino]methyl-1H-pyrazin-2-one] it was 1.4 µM.
Regarding `O=C(Cc1ccccc1Br)C1CCN(Cc2ncc[nH]c2=O)CC1` [Example 362, 3-[4-[2-(2-Bromophenyl)acetyl]piperidino]methyl-1H-pyrazin-2-one], the IC50 came to 4.5 µM.
Still for that read-out and setting: to `O=C(Cc1ccccc1F)C1CCN(Cc2ccn[nH]c2=O)CC1` [Example 364, 4-[4-[2-(2-Fluorophenyl)acetyl]piperidino]methyl-2H-pyridazin-3-one] belongs 9.3 µM.
Take `O=C(Cc1ccccc1F)C1(F)CCN(Cc2ncc[nH]c2=O)CC1` [Example 370, 3-[4-Fluoro-4-[2-(2-fluorophenyl)acetyl]piperidino]methyl-1H-pyrazin-2-one]: the IC50 was found to be 9.6 µM.
Still for that read-out and setting: to `O=C1CN(Cc2ncc[nH]c2=O)CCC1CCc1ccccc1F` (centres unmarked) [Example 371, 3-[4-[2-(2-Fluorophenyl)ethyl]-3-oxopiperidino]methyl-1H-pyrazin-2-one] belongs 9 µM; to `O=C(Cc1ccccc1C(F)(F)F)C1(F)CCN(Cc2ncc[nH]c2=O)CC1` [Example 372, 3-[4-Fluoro-4-[2-[2-(trifluoromethyl)phenyl]acetyl]piperidino]methyl-1H-pyrazin-2-one], 3.3 µM; to `O=c1[nH]ccnc1CN1CCCC(COc2ccccc2F)CC1` (centres unmarked) [Example 388, 3-[4-(2-Fluorophenoxymethyl)azepan-1-yl]methyl-1H-pyrazin-2-one], 4.7 µM.
On the same count and under the same terms, to `CC(c1ncc[nH]c1=O)N1CCC(COc2ccccc2F)CC1` (centres unmarked) [Example 395, 3-[1-[4-(2-Fluorophenoxymethyl)piperidino]ethyl]-1H-pyrazin-2-one oxalate] belongs 6.7 µM; to `O=c1[nH]ccnc1CN1CCC([S+]([O-])Cc2ccccc2F)CC1` (centres unmarked) [Example 398, 3-[4-(2-Fluorobenzylsulfinyl)piperidino]methyl-1H-pyrazin-2-one], 3.4 µM; to `CC1(COc2ccccc2F)CCN(Cc2ncc[nH]c2=O)CC1` [Example 406, 3-[4-(2-Fluorophenoxymethyl)-4-methylpiperidino]methyl-1H-pyrazin-2-one], 3 µM.
Same read-out and setting: in the case of `O=C(Cc1cccc2c1OCC2)C1CCN(Cc2ncc[nH]c2=O)CC1` [Example 410, 3-[4-[2-(2,3-Dihydrobenzofuran-7-yl)acetyl]piperidino]methyl-1H-pyrazin-2-one] it was 5.7 µM; in that of `O=c1[nH]ccnc1CN1CCC(SCc2ccccc2F)CC1` [Example 411, 3-[4-(2-Fluorobenzylthio)piperidino]methyl-1H-pyrazin-2-one], 4.8 µM; in that of `O=c1[nH]ccnc1CN1CCC(/C=C/c2ccccc2OCC2CCCCC2)CC1` [Example 412, (E)-3-[4-[2-[2-(Cyclohexylmethyloxy)phenyl]vinyl]piperidino]methyl-1H-pyrazin-2-one oxalate], 1.2 µM.
